Laboratory results reported in US20230158152A1, “PROTEOLYSIS REGULATOR AND METHOD FOR USING SAME” (MEDSHINE DISCOVERY INC., priority 2020, published 2023).

Key:
[1] = target: T1, Recombinant human-derived ALK (Homo sapiens, UniProt Q9UM73); experiment: Inhibitory activity of compounds against ALK kinase (time-resolved fluorescence resonance energy transfer); format: biochemical; details: 30 μM ATP, 50 nM ULight-poly GT peptide
T1 construct: BAG10812.1; 1058-1620 (terminal) amino acids; GST (N); made in house
Procedure: The inhibitory activity of the compounds on ALK kinase was detected by time-resolved fluorescence resonance energy transfer method, that is, the ratio of fluorescence signals at 665 nm/615 nm was used to represent the activity of the enzyme.
Assay buffer solution: 50 mM 2-[4-(2-hydroxyethyl)-1-piperazinyl]ethanesulfonic acid buffer solution (HEPES) (pH 7.5), 10 mM MgCl2, 1 mM EDTA 0.01%, polyoxyethylene lauryl ether (Brij 35), 2 mM dithiothreitol (DTT).
Enzyme: Recombinant human-derived ALK (gene accession number: BAG10812.1; 1058-1620 (terminal) amino acids) was expressed with a N-terminal GST fusion protein (90 kDa) using a baculovirus expression system.
Enzyme substrate: 50 nM ULight-poly GT polypeptide.
Detection: europium-labeled anti-phosphotyrosine (PT66) antibody.
1. Compounds dissolved in 100% DMSO were added to 384-well plates by acoustic technique; 2. Recombinant human-derived ALK enzyme and enzyme substrate (50 nM ULight-poly GT peptide) or zymolyte (30 μM ATP) were dissolved in freshly prepared assay buffer; 3. The above ALK enzyme and enzyme substrate in the buffer solution were transferred to reaction wells; 4. Then, the zymolyte in the buffer solution was added to the above reaction wells to initiate the reaction; 5. The plate was incubated at room temperature for 1 hour; 6. The detection mixture (PT66 antibody and EDTA) was added to terminate the reaction, and the mixture was incubated at room temperature for 60 minutes; 7. Then, the plate was read using a microplate reader to obtain the ratio of fluorescence signals at 665 nm/615 nm.
Data analysis: Emission ratio (665 nm/615 nm) in the original data was involved in the calculation of the inhibition rate. The concentration and inhibition rate were analyzed using XLfit software 205 mode (4 Parameters Logistic Model) to obtain IC50 value and curve.

[2] = system: human lung cancer cell NCI-H2228; experiment: Anti-proliferative effect in human lung cancer cell NCI-H2228 (CellTiter-Glo); format: cell-based; details: NCI-H2228, 72 h, cell proliferation, cultured for 3 days
Procedure: In this assay, the inhibitory effect of assay compounds on cell proliferation was assayed in human lung cancer cell NCI-H2228.
(1) Promega CellTiter-Glo luminescent cell viability assay kit (Promega-G7573). (2) 2104 EnVision® plate reader, PerkinElmer.
The tumor cell line was cultured in a 37° C., 5% CO2 incubator according to the above-mentioned culture conditions. Cells were passaged periodically, and cells in logarithmic growth phase were used for plating.
(1). Cells were stained with trypan blue and viable cells were counted; (2). The cell concentration was adjusted to an appropriate concentration;
(3). 90 μL of cell suspension was added to each well of the culture plate as shown in the table above, and cell-free culture medium was added to the blank control well; (4). The plate was incubated in an incubator at 37° C., 5% CO2, and 100% relative humidity overnight.
Preparation of a mother solution storage plate with 400 times the starting compound concentration: the compounds were diluted serially with DMSO from the highest concentration to the lowest concentration. The plate was prepared freshly every time it was used.
(1). 78 μL of cell culture medium was added to a 96-well plate with a V-shaped bottom. […]
(1). […] The culture plate was left at room temperature for 10 minutes to stabilize the luminescence signal; (9). The luminescent signal was detected on a 2104 EnVision plate reader. […]

[3] = Pharmacokinetics of the compound in mice; format: in vivo, C57BL/6 (C57) mice
Text: In this study, C57BL male mice were selected as assay animals, and the LC/MS/MS method was used to quantitatively determine the compound concentration at different time points in the plasma of mice administered intravenously or orally with the assay compound, so as to evaluate pharmacokinetic profile of the assay compound in mice.
C57BL/6 (C57) mice (male, 17-20 g, 7-10 weeks old, from Shanghai lingchang).
A clear solution of the assay compound was intravenously injected into C57 mice via tail (fasted overnight) or administered to C57 mice by gavage (fasted overnight). 200 μL of blood was collected from the saphenous vein at 0.0833, 0.25, 0.5, 1, 2, 4, 8 and 24 h after intravenous administration, and placed in an anticoagulant tube (Jiangsu Kangjian Medical Co., Ltd.) supplemented with EDTA-K2. The mixture was thoroughly vortexed at 4° C. and centrifuged at 3200 g for 10 min. Blood was collected from the saphenous vein at 0.25, 0.5, 1, 2, 4, 6, 8 and 24 h after oral gavage administration, and placed in an anticoagulant tube (Jiangsu Kangjian Medical Co., Ltd.) supplemented with EDTA-K2. The mixture was thoroughly vortexed and centrifuged at 3200 g for 10 min. Blood drug concentration was determined by LC-MS/MS, and relevant pharmacokinetic parameters were calculated with the non-compartmental model Linear/log trapezoidal method using Phoenix WinNonlin 6.3 pharmacokinetic software.

[4] = male, C57BL/6, mouse, plasma, intravenous injection (2 mg/kg)

T1 sequence (Q9UM73 1058-1620): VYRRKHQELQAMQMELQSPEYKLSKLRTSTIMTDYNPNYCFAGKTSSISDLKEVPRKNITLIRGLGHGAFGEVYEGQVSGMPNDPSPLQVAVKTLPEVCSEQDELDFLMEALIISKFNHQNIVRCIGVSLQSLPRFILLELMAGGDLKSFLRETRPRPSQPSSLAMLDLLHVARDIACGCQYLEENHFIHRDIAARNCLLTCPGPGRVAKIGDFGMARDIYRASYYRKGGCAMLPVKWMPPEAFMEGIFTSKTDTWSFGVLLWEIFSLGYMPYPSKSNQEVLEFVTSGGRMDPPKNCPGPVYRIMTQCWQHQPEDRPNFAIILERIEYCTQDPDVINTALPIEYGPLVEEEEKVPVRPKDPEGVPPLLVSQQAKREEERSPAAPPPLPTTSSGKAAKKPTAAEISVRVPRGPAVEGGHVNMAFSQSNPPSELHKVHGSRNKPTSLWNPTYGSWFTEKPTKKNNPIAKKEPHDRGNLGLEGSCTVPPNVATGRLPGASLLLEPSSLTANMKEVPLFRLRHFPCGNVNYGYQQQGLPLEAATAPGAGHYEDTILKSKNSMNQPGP

Cc1cc(Nc2ncc(Cl)c(Nc3ccccc3S(=O)(=O)C(C)C)n2)c(OC(C)C)cc1C1CCN(CC(=O)NCCOc2ccc3occ(C4CCC(=O)NC4=O)c3c2)CC1 (stereo not drawn) [WX001]
IC50 [1]: 21.8 nM | IC50 [2]: 91 nM | Area under the curve (0-inf) ([3]; intravenous injection (2 mg/kg)): 3.69 µM·h | clearance [3, 4]: 10.3 mL/min/kg | half-life [3, 4]: 1.74 h | bioavailability ([3]; male, C57BL/6, mouse, plasma, oral (10 mg/kg), read-out: Bioavailability F): 11.7% | Area under the curve (0-inf) ([3]; oral (10 mg/kg)): 2.33 µM·h | Peak concentration ([3]; oral (10 mg/kg)): 0.68 µM | Time to peak ([3]; oral (10 mg/kg)): 0.75 h
